Reference: paper PMC5392334, “Discovery and characterization of a novel irreversible EGFR mutants selective and potent kinase inhibitor CHMFL-EGFR-26 with a distinct binding mode” (Oncotarget, 2017)

Assays:
[1] = target: MNK2 kinase; conditions: cited from earlier work
[2] = test system: BaF3-FL-EGFR-L858R-T790M-C797S; assay: Anti-proliferation, BaF3 isogenic cell lines (CellTiter-Glo); format: cell-based; conditions: Mus musculus, 72 hours, triplet testing
[3] = test system: BaF3-TEL-EGFR-L858R-C797S; assay: as above; format: cell-based; conditions: Mus musculus, 72 hours, triplet testing
[4] = test system: BaF3-TEL-EGFR-T790M; assay: as above; format: cell-based; conditions: Mus musculus, 72 hours, triplet testing
[5] = test system: BaF3-IGF1R; assay: Anti-proliferative effects, IGF1R transformed isogenic BaF3 cells; format: cell-based; conditions: Mus musculus, read-out: IC50 (anti-proliferative; GI50)
[6] = test system: CHL; assay: Anti-proliferation, normal cells (CellTiter-Glo); conditions: Cricetulus griseus, 72 h
Experimental: (§2) Cells were grown in 96-well culture plates (2500-3000/well). For adherent cell lines, compounds of various concentrations were added into the plates after cells were cultured for 12 hours. Cell proliferation was determined after treatment with compounds for 72 hours. Cell viability was measured using the CellTiter–Glo assay (Promega, USA) according to the manufacturer's instructions, and luminescence was measured in a multi-label reader (Envision, PerkinElmer, USA). Data were normalized to control groups (DMSO) and represented by the mean of three independent measurements with standard error <20%. GI50 values were calculated using Prism 5.0 (GraphPad Software, San Diego, CA).

[7] = test system: BaF3-TEL-EGFR; assay: Anti-proliferation, BaF3 isogenic cell lines (CellTiter-Glo); format: cell-based; conditions: Mus musculus, 72 hours, triplet testing
[8] = test system: BaF3-FL-EGFR-del19; assay: as above; format: cell-based; conditions: Mus musculus, 72 hours, triplet testing
[9] = test system: BaF3-FL-EGFR-del19-T790M; assay: as above; format: cell-based; conditions: Mus musculus, 72 hours, triplet testing
[10] = test system: H3255 (EGFRL858R); assay: Anti-proliferation, NSCLC cell lines (CellTiter-Glo); format: cell-based; conditions: Homo sapiens, NCI-H3255, 72 hours, triplet testing
Experimental: (§1) The human cancer cell lines H1975, HCC827, H2122, CHO, CHL and H1355 were purchased from the American Type Culture Collection (ATCC) (Manassas, VA, USA). PC9 cell line was purchased from the Sigma-Aldrich (St. Louis, MO, USA). A549, H3255 were purchased from Cobioer Biosciences CO., LTD (Nanjing, China). […] A549 and H1355 were cultured in F-12K Nutrient Mixture (kaighn's Modification) (Gibco, USA) with 10% FBS and supplemented with 2% L-glutamine and 1% pen/strep. H3255 was cultured in BEGM media (LONZA, USA) with 10% FBS and supplemented with 2% L-glutamine and 1% pen/strep.

[11] = test system: A549 (EGFR wt); assay: as above; format: cell-based; conditions: Homo sapiens, 72 hours, triplet testing
Experimental: as §1

[12] = test system: PC-9 (EGFR del19); assay: as above; format: cell-based; conditions: Homo sapiens, 72 hours, triplet testing
Experimental: as §1

[13] = test system: H1355(EGFR wt); assay: as above; format: cell-based; conditions: Homo sapiens, NCI-H1355, 72 hours, triplet testing
Experimental: as §1

[14] = test system: HCC827 (EGFR del19); assay: as above; format: cell-based; conditions: Homo sapiens, 72 hours, triplet testing
Experimental: as §1

[15] = test system: H1703 (EGFR wt); assay: as above; format: cell-based; conditions: Homo sapiens, NCI-H1703, 72 hours, triplet testing
Experimental: as §1

[16] = test system: H2122 (EGFR wt); assay: as above; format: cell-based; conditions: Homo sapiens, NCI-H2122, 72 hours, triplet testing
Experimental: as §1

[17] = test system: BaF3-TEL-EGFR-L858R; assay: Anti-proliferation, BaF3 isogenic cell lines (CellTiter-Glo); format: cell-based; conditions: Mus musculus, 72 hours, triplet testing
[18] = test system: EGFR Y1068 phosphorylation in BaF3-TEL-EGFR cells; assay: EGFR Y1068 auto-phosphorylation in transformed BaF3 cells; conditions: Mus musculus, BaF3, 4 h, read-out: EC50, phosphorylation of EGFR Y1068
[19] = test system: CHO; assay: Anti-proliferation, normal cells (CellTiter-Glo); conditions: Cricetulus griseus, 72 h
Experimental: as §2

[20] = test system: H1975 (EGFRL858R/T790M); assay: Anti-proliferation, NSCLC cell lines (CellTiter-Glo); format: cell-based, human; conditions: Homo sapiens, NCI-H1975; H1975 (EGFRL858R/T790M); 72 hours; triplet testing
Experimental: as §1

[21] = test system: BaF3-FL-EGFR-del19-T790M-C797S; assay: Anti-proliferation, BaF3 isogenic cell lines (CellTiter-Glo); format: cell-based; conditions: Mus musculus, 72 hours, triplet testing
[22] = test system: BaF3-TEL-EGFR-C797S; assay: as above; format: cell-based; conditions: Mus musculus, 72 hours, triplet testing
[23] = quoted in discussion for comparison; species, route and reference not given; cited from earlier work
[24] = test system: Parental BaF3; assay: Anti-proliferation, BaF3 isogenic cell lines (CellTiter-Glo); format: cell-based; conditions: Mus musculus; Parental BaF3; 72 hours; triplet testing
[25] = test system: BaF3-FL-EGFR-L858R-T790M; assay: as above; format: cell-based; conditions: Mus musculus, 72 hours, triplet testing
[26] = test system: BaF3-INSR; assay: Anti-proliferative effects, INSR transformed isogenic BaF3 cells; format: cell-based; conditions: Mus musculus, read-out: IC50 (anti-proliferative; GI50)
[27] = test system: BaF3-TEL-EGFR-T790M-C797S; assay: Anti-proliferation, BaF3 isogenic cell lines (CellTiter-Glo); format: cell-based; conditions: Mus musculus, 72 hours, triplet testing

Question: Which IC50 [1] does the source give for C=CC(=O)Nc1cc(Nc2nccc(-c3cn(C)c4ccccc34)n2)c(OC)cc1N(C)CCN(C)C [AZD9291, reference compound] here?
Answer: 95 nM

Question: And the GI50 [2]?
Answer: 310 nM

Question: What about the GI50 [3] of the same compound?
Answer: 590 nM

Question: And the GI50 [4]?
Answer: 13 nM

Question: What about the IC50 [5] of the same compound?
Answer: 560 nM

Question: What about the GI50 [6] of the same compound?
Answer: 2900 nM

Question: And the GI50 [7]?
Answer: 300 nM

Question: And the GI50 [8]?
Answer: 1 nM

Question: And the GI50 [9]?
Answer: < 0.3 nM

Question: And the GI50 [10]?
Answer: 33 nM

Question: And the GI50 [11]?
Answer: 3500 nM

Question: What about the GI50 [12] of the same compound?
Answer: 2 nM

Question: What about the GI50 [13] of the same compound?
Answer: 3000 nM

Question: And the GI50 [14]?
Answer: 1 nM

Question: And the GI50 [15]?
Answer: 3500 nM

Question: What about the GI50 [16] of the same compound?
Answer: 1200 nM

Question: What about the GI50 [17] of the same compound?
Answer: < 0.3 nM

Question: And the EC50 [18]?
Answer: 63 nM

Question: And the GI50 [19]?
Answer: 4200 nM

Question: What about the GI50 [20] of the same compound?
Answer: 52 nM

Question: And the GI50 [21]?
Answer: 200 nM

Question: What about the GI50 [22] of the same compound?
Answer: 590 nM

Question: What about the T1/2 [23] of the same compound?
Answer: 3.1 h

Question: What about the GI50 [24] of the same compound?
Answer: 1500 nM

Question: And the GI50 [25]?
Answer: < 0.3 nM

Question: And the IC50 [26]?
Answer: 500 nM

Question: And the GI50 [27]?
Answer: 550 nM

Question: What does the source list for CCC(=O)N1CCC[C@@H](n2nc(-c3ccc(OCc4cccc(C)n4)c(Cl)c3)c3c(N)ncnc32)C1 [CHMFL-EGFR-26R]?
Answer: GI50 [2]: > 10000 nM; GI50 [3]: > 10000 nM; GI50 [4]: > 10000 nM; GI50 [6]: > 10000 nM; GI50 [7]: > 10000 nM; GI50 [8]: > 10000 nM; GI50 [9]: 7100 nM; GI50 [10]: > 10000 nM; GI50 [11]: > 10000 nM; GI50 [12]: > 10000 nM; GI50 [13]: > 10000 nM; GI50 [14]: > 10000 nM; GI50 [15]: 9400 nM; GI50 [16]: > 10000 nM; GI50 [17]: > 10000 nM; GI50 [19]: > 10000 nM; GI50 [20]: > 10000 nM; GI50 [21]: 7300 nM; GI50 [22]: 6600 nM; GI50 [24]: > 10000 nM; GI50 [25]: > 10000 nM; GI50 [27]: > 10000 nM
